SMILES strings stand for the structures. Values after ≈ are worked out from the molar mass of the structure shown.

Test [1] in a line: Antifungal broth microdilution MIC assay. As to conditions: read-out: minimum inhibitory concentrations. On the technique in general: Dilution methods test growth across graded concentrations, often in twofold steps.
Test [2] has as its system Clostridium difficile. Briefly: Broth microdilution MIC against C. difficile strains. As to conditions: Clostridioides difficile, BAA1870, 48 h, read-out: minimum inhibitory concentrations (MIC).

In the case of `Cc1ccc(S(=O)(=O)N2CCC3=C2COC3=O)cc1` [Example 11, 1-tosyl-1,2,3,6-tetrahydro-4H-furo[3,4-b]pyrrol-4-one], the MIC in test [1] was in the range of 64 to 128 µM (≈ 17.9 to 35.8 µg/mL).

Take `CCCC1OC(=O)/C1=C1\CCCN1S(=O)(=O)c1ccc(C)cc1` (stereo not drawn) [Example 22, (E)-4-propyl-3-(1-tosylpyrrolidin-2-ylidene)oxetan-2-one]: the MIC in test [1] fell in the range of 64 to 128 µM (≈ 21.5 to 42.9 µg/mL).

Turning to `Cc1ccc(S(=O)(=O)N2CCC3=C2C2(COC2)OC3=O)cc1` [Example 19, 1-tosyl-2,3-dihydrospiro[furo[3,4-b]pyrrole-6,3′-oxetan]-4(1H)-one], the MIC in test [1] and in test [2] was 64 to 128 µM (≈ 20.6 to 41.1 µg/mL) throughout.

`Cc1ccc(S(=O)(=O)N2CCC3=C2C(c2cccc(Br)c2)OC3=O)cc1` (stereo not drawn) [Example 8, 6-(3-bromophenyl)-1-tosyl-1,2,3,6-tetrahydro-4H-furo[3,4-b]pyrrol-4-one]: the MIC in test [1] and in test [2] was 64 to 128 µM (≈ 27.8 to 55.6 µg/mL) throughout.

Values taken from US10138252B1, “Lactones” (Purdue Research Foundation, priority 2017, dated 2018).
